Reference: US5665515A, “Method for obtaining a printing plate according to the silver salt diffusion transfer process” (Agfa-Gevaert N.V., priority 1994, dated 1997)

Assay: pKa of the mercapto group by titration with hydrochloric acid in water
Type: physicochemical
Conditions: 0.002 mole/liter, dissolved at pH 11, titrated with 0.1 mole/liter hydrochloric acid
Protocol: The pKa of the mercapto-compounds in connection with the present invention were determined according to the method described in "Ionization Constants of Acids and Bases--A Laboratory Manual" written by Adrien Albert and E. P. Serjeant and Edited by John Wiley & Sons (New York) page 110-112 (1962).
In these particular cases, the compounds were dissolved in water at pH 11. The concentration of the compounds was 0.002 mole/liter and the mixture was then titrated with a solution of hydrochloric acid (0.1 mole/liter).

| Structure (SMILES) | pKa |
| --- | --- |
| CCCCCCCCn1nnnc1S [compound 4] | 3.4 |
| Sc1nnnn1-c1ccccc1 [compound 6] | 3.1 |
| CCCCN(CCCC)C(=O)Cn1nnnc1S [compound 2] | 3.3 |
| CCCCn1nnnc1S [compound 5] | 3.2 |
